The test system of this test is patients aged 40-80 years with moderate to severe COPD. Nature of the test: Multi-centre, randomized, double-blind, placebo-controlled clinical study of nebulised ensifentrine in COPD (FEV1 spirometry). In kind it is in vivo. The conditions noted are these: for Average change in baseline FEV1 (AUC)0-12 h at Week 12: 3 mg BID by nebuliser. The procedure:
A clinical study was conducted to determine the efficacy of ensifentrine in treating COPD compared with placebo. Ensifentrine was administered by nebuliser at a dose of 3 mg twice daily (BID) for 24 weeks. The study was a multi-centre, randomized, double-blind, parallel-group, placebo-controlled trial with around 800 patients and 5:3 randomization.
The study population included patients aged 40-80 years with moderate to severe COPD (FEV1 30%-70% p.n., FEV1/forced vital capacity (FVC) ratio <0.7, with mMRC≥2). The randomization stratified (a) the use of stable background maintenance LAMA or LABA therapy use (approx. 50%. yes or no) and (b) cigarette smoking (current or former). Inhaled corticosteroid (ICS) maintenance therapy was permitted in up to 20% of patients under certain provisions.
The primary endpoint of the study was change from baseline in average FEV1 area under the curve (AUC)0-12 h post-dose at week 12. Secondary endpoints of the study included: peak FEV1 over 4 hours post-dose at Week 12; morning trough FEV1 at Week 12; and other endpoints including moderate/severe COPD exacerbations frequency over 24 Weeks.
COPD severity is derived as follows: mild: 80%<=FEV1, moderate: 50%<=FEV1<80% predicted, severe: 30%<=FEV1<50% predicted and very severe: FEV1<30% predicted, post bronchodilator dose at Screening.
Baseline FEV1 is the mean of the two measurements taken before study medication on the day of first dosing, i.e. ≤40 minutes and just prior to dosing, both pre-dose on day 1.
Average FEV1 AUC0-12 h is defined as area under the curve over 12 hours of the FEV1, divided by 12 hours.
The investigational product and placebo were provided in 2.5 mL unit dose format in an ampule and administered via a nebuliser.

Experimental findings from US20240173327A1, “NEW TREATMENT” (Verona Pharma PLC, priority 2022, published 2024) are described below.

Each structure is given as a SMILES string.

Regarding `COc1cc2c(cc1OC)-c1c/c(=N\c3c(C)cc(C)cc3C)n(CCNC(N)=O)c(=O)n1CC2` [Ensifentrine, N-(2-{(2E)-9,10-dimethoxy-4-oxo-2-[(2,4,6-trimethylphenyl)imino]-6,7-dihydro-2H-pyrimido[6,1-a]isoquinolin-3(4H)-yl}ethyl)urea], under “all subgroups of COPD patients in the study”, the “Improvement in lung function” value was “statistically significant”. In addition, the “Improving lung function in moderate COPD” value (moderate COPD patients) is listed as “particularly effective”. Further, the “Average change in baseline FEV1 (AUC)0-12 h at Week 12” value runs as follows: (patients with moderate COPD) 139 mL; (patients with severe COPD) 45 mL.
